Measured values as given in patent US9624167B2, “N-(4-hydroxy-4-methyl-cyclohexyl)-4-phenyl-benzenesulfonamides and N-(4-hydroxy-4-methyl-cyclohexyl)-4-(2-pyridyl)benzenesulfonamides and their therapeutic use” (PIMCO 2664 LIMITED, priority 2013, dated 2017).
Like-named read-outs stand apart in the source and are kept apart here.

Tests used:
[1] = Maximum Tolerated Dose, Han Wistar rats; settings: rat, in vivo, oral
Method: The acute safety of the compounds was assessed in rats in order to enable determination of the maximum tolerated dose (MTD), an indication of a compound's safety in animals. The higher the MTD, the greater is the potential safety of the compound being tested.
At the completion of the study, the results were expressed as the maximum tolerated dose for each compound, this being the highest of each without unacceptable toxicity.
The maximum dose without unacceptable side-effects was determined to be the MTD (expressed in mg/kg).

CD8+ T-lymphocytes = experiment: Human primary leucocyte proliferation: CD8+ T-lymphocytes; assay type: cell-based; settings: 3 μM, 5 days
Method: (§1) Effects on cell viability were assessed using flow cytometry. Flow cytometry is a laser-based, biophysical technology employed in cell counting, cell sorting, and biomarker detection, by suspending cells in a stream of fluid and passing them by an electronic detection apparatus. It allows simultaneous multi-parametric analysis of the physical and chemical characteristics of up to thousands of particles per second. The sorting of cells using flow cytometry requires the use of specific cell markers. To quantify cell numbers, counting beads are used as an internal standard. Counting beads are a calibrated suspension of microbeads which are added to a known volume of sample so the sample volume per bead is known. […] In addition, for B- and T-lymphocytes, cell proliferation was measured using a dye known as Cell Proliferation Dye (eFluor® 450). eFluor® 450 is an organic dye which can be conjugated to cell-specific markers. […]
(§2) PBMCs (peripheral blood mononuclear cells) were collected from healthy donors (all female) and isolated by centrifugation on a layer of Ficoll Paque (GE Healthcare, UK). […] Following incubation, the cells were stained with either anti-human CD8 or CD4 before being analysed on a flow cytometer. […]
(§3) The average results (n=3) for the reference compound (ABD735) were expressed as a fold change versus the average control value. […]

B-lymphocytes = experiment: Human primary leucocyte proliferation: B-lymphocytes; assay type: cell-based; settings: 3 μM
Method: as §1
PBMCs (peripheral blood mononuclear cells) were collected from healthy donors (all female) and isolated by centrifugation on a layer of Ficoll Paque (GE Healthcare, UK). […] Following incubation, the cells were stained with anti-human CD19, a marker of B-lymphocytes, before being analysed on a flow cytometer. […]
as §3

CD4+ T-lymphocytes [2] = experiment: Human primary leucocyte viability: CD4+ T-lymphocytes; assay type: cell-based; settings: 3 μM, 48 hours
Method: (§4) The effects of the reference compound (ABD735) on the viability of neutrophils, monocytes, CD4+ and CD8+ T-cells and B-lymphocytes was assessed under both resting and stimulated conditions. Resting conditions were used to assess likely effects on normal cells found in human blood, and stimulated conditions were used to assess the effects of the compound under disease conditions.
as §1, with “standard.” for “standard. Counting beads are a calibrated suspension of microbeads which are added to a known volume of sample so the sample volume per bead is known.”
as §3

Monocytes = experiment: Human primary leucocyte viability: monocytes; assay type: cell-based; settings: 3 μM, 48 hours
Method: as §4
Effects on cell viability were assessed using flow cytometry. Flow cytometry is a laser-based, biophysical technology employed in cell counting, cell sorting, and biomarker detection, by suspending cells in a stream of fluid and passing them by an electronic detection apparatus. It allows simultaneous multi-parametric analysis of the physical and chemical characteristics of up to thousands of particles per second. The sorting of cells using flow cytometry requires the use of specific cell markers. To quantify cell numbers, counting beads are used as an internal standard. Counting beads are a calibrated suspension of microbeads which are added to a known volume of sample so the sample volume per bead is known. This allows the absolute determination of cell number in a sample. In addition, for B- and T-lymphocytes, cell proliferation was measured using a dye known as Cell Proliferation Dye (eFluor® 450). eFluor® 450 is an organic dye which can be conjugated to cell-specific markers. It fluoresces when excited by a laser in a manner proportional to the number of cells bound by the conjugate. Its signal therefore provides an indication of the proliferation of specific cell types.
PBMCs (peripheral blood mononuclear cells) were collected from healthy donors (all male) and isolated by centrifugation on a layer of Ficoll Paque (GE Healthcare, UK). Cells were then resuspended (3×10^6 cells/mL) in RPMI supplemented with 10% FCS and antibiotics (penicillin 100 U/mL, streptomycin 100 μg/mL) and 1 mL of cell suspension was added to a 48-well plate, which was then incubated for 1 hour at 37° C./5% CO2. Subsequently, the supernatant was aspirated to remove non-adherent cells, which was followed by two washing steps to ensure removal of non-adhered cells. Adhered cells (monocytes) were then stimulated with either LPS (10 ng/mL), TNFα (10 ng/mL) or macrophage colony stimulating factor (M-CSF) (10 ng/mL) in the absence (control) or presence of reference compound (ABD735) (at 30, 10, 3, 1, or 0.3 μM) for 48 hours at 37° C./5% CO2. Subsequently, the plates were centrifuged and the monocytes washed in PBS before addition of PBS plus EDTA (10 mM) and incubation at 4° C. for 20 minutes to help detach the cells, which was facilitated by pipetting. […]
as §3

CD4+ T-lymphocytes [3] = experiment: Human primary leucocyte proliferation: CD4+ T-lymphocytes; assay type: cell-based; settings: 3 μM, 5 days
Method: as §1, §2, §3

SMILES	MTD ([1]; female Han Wistar rats, read-out: Maximum tolerated dose, Females)	MTD ([1]; male Han Wistar rats, read-out: Maximum tolerated dose, Males)	Fold change in proliferation (CD8+ T-lymphocytes; no stimulation)	Fold change in proliferation (CD8+ T-lymphocytes; phytohaemagglutinin)	Fold change in proliferation (B-lymphocytes; SAC/IL-2, 5 days)	Fold change in proliferation (B-lymphocytes; no stimulation, 5 days)	Fold change in viability (CD4+ T-lymphocytes [2]; no stimulation)	Fold change in viability (CD4+ T-lymphocytes [2]; phytohaemagglutinin)	Fold change in viability (Monocytes; LPS)	Fold change in viability (Monocytes; M-CSF)	Fold change in viability (Monocytes; TNFα)	Fold change in viability (Monocytes; no stimulation)	Fold change in proliferation (CD4+ T-lymphocytes [3]; no stimulation)	Fold change in proliferation (CD4+ T-lymphocytes [3]; phytohaemagglutinin)
C[C@]1(O)CC[C@H](NS(=O)(=O)c2ccc(-c3ccc(Cl)cc3C#N)cc2)CC1 [HMC-C-01-A, 4′-Chloro-2′-cyano-N-((1r,4r)-4-hydroxy-4-methylcyclohexyl)biphenyl-4-sulfonamide]	> 500 mg/kg	> 500 mg/kg	–	–	–	–	–	–	–	–	–	–	–	–
Cc1cc(S(=O)(=O)N[C@H]2CC[C@H](O)CC2)ccc1-c1ccc(F)cc1F [ABD735]	–	–	0.7	0.3	0.6	0.9	0.9	0.6	1.0	1.1	0.5	0.7	1	0.6
